≈ marks a conversion by molar mass, not a printed value. A value given as a limit tells only on which side of the number the result lay.

Assay [1] has as its system methicillin-resistant Staphylococcus aureus (ATCC 43300). Briefly: microbe, parasite or virus in culture. The following applies: Staphylococcus aureus, ATCC 43300 / MRSA, 18 h. It counts as cell-based. As to the method: (§1) Antibacterial activity was determined for the title compounds in various Gram-negative and Gram-positive bacterial strains, namely Klebsiella pneumoniae, Escherichia coli (ATCC 25922), Staphylococcus aureus (272123), methicillin-resistant Staphylococcus aureus (ATCC 43300), and Enterococcus faecalis (ATCC 29212). The stock solutions of the tested compounds were prepared in DMSO at a 5 mM concentration. […] All stock solutions were diluted in 100 μL of Mueller Hinton Broth, and then two-fold serial dilutions were performed. Then, a 10^–4 dilution of an overnight bacterial culture in 100 μL of medium was added to each well, except for the medium control wells. The highest concentration of the compounds in the tested samples was 100 μM. The plates were incubated at 37 °C for 18 h. After that, the MIC values were determined by visual inspection.

Assay [2] deals with Escherichia coli (ATCC 25922). Briefly: Antibacterial MIC, broth dilution. It is filed as cell-based. The note with it: Escherichia coli, ATCC25922, 18 h. As to the method:
as §1
On the technique in general: Broth dilution looks for growth in wells or tubes with falling amounts of substance.

For assay [3], the system named is Klebsiella pneumoniae. Briefly: Antibacterial MIC, broth dilution. It is filed as cell-based. The following applies: Klebsiella pneumoniae, 18 h. The procedure: as §1
Assay [4] deals with Staphylococcus aureus (272123). Briefly: Antibacterial MIC, broth dilution. It is filed as cell-based. The following applies: Staphylococcus aureus, 18 h. The procedure: as §1
For assay [5], the system named is Enterococcus faecalis (ATCC 29212). Briefly: Antibacterial MIC, broth dilution. It is filed as cell-based. The note with it: Enterococcus faecalis, ATCC29212, 18 h. The procedure:
as §1

Assay [6] deals with calf thymus-DNA (CT-DNA). Briefly: Viscometry with CT-DNA. The note with it: compound/DNA ratios 0.0 to 1.0; 5 mM Tris, 100 mM NaCl, pH 7.40, 25.0 °C. It counts as binding. The procedure: […] Then, the samples were incubated at 37 °C and with constant shaking at 300 rpm for 10 min and 1 h. After each incubation, the viscosity was measured at a constant temperature of 25.0 ± 0.2 °C in a vibrational viscometer. The relative viscosity was calculated by taking the mean values of three replicate measurements, and the values were represented by plotting the values of relative viscosity of CT-DNA (η/η0)^1/3 against 1/R.

Assay [7] deals with Colo 205 human colon cancer cell line. Briefly: In vitro cytotoxicity, MTT. It is filed as cell-based. The following applies: Homo sapiens; Colo 205, 72 h exposure. The procedure:
(§2) Cell culture reagents were obtained from Merck, and plasticware was obtained from Sarstedt. Human colon adenocarcinoma cell line Colo 205 (ATCC CCL-222) and MCF7 (ATCC HTB-22) breast cancer cells were purchased from LGC Promochem. Cancer cells were cultured in RPMI 1640 medium supplemented with 10% heat-inactivated fetal bovine serum, 2 mM L-glutamine, and 1 mM sodium pyruvate and buffered with 100 mM HEPES. The cells were incubated at 37 °C in a 5% CO2, 95% air atmosphere and were detached with Trypsin-Versene (EDTA) solution for 5 min at 37 °C.
(§3) The tested ligands were dissolved in DMSO, and the stock solutions (5 mM) were diluted in complete culture medium. Two-fold serial dilutions of compounds were made in 100 μL of the medium, horizontally. The semiadherent colon adenocarcinoma cells were treated with Trypsin-Versene (EDTA) solution. They were adjusted to a density of 1 × 10^4 cells in 100 μL of RPMI 1640 medium and were added to each well, with the exception of the medium control wells. The final volume of the wells containing compounds and cells was 200 μL. The plates containing the cells were incubated at 37 °C for 72 h; at the end of the incubation period, 20 μL of MTT solution (5 mg/mL) was added to each well. After incubation at 37 °C for 4 h, 100 μL of sodium dodecyl sulfate solution (10% in 0.01 M HCl) was added to each well, and the plates were further incubated at 37 °C overnight. Cell growth was determined by measuring the optical density (OD) at 540 and 630 nm with a Multiskan EX plate reader (Thermo Labsystems).
(§4) Curves for the data obtained on cancer cells were fitted by GraphPad Prism software using the sigmoidal dose–response model (comparing variable and fixed slopes). The IC50 values were always obtained from at least three independent experiments.

Assay [8] has as its system MCF7 human breast cancer cell line. In words: In vitro cytotoxicity, MTT. It counts as cell-based. The following applies: Homo sapiens; MCF7, 72 h exposure. As to the method:
as §2, §3, §4

As to `O=C(O)c1cn(C2CC2)c2cc(N3CCNCC3)c(F)cc2c1=O` [ciprofloxacin, reference compound], the MIC in assay [1] is over 15.1 µM; in assay [2] it was 0.235 µM (≈ 0.078 µg/mL); in assay [3], 0.235 µM (≈ 0.078 µg/mL); in assay [4], 1.89 µM (≈ 0.625 µg/mL); in assay [5] it was 1.89 µM (≈ 0.625 µg/mL).

As for `CC[n+]1c(-c2ccccc2)c2cc(N)ccc2c2ccc(N)cc21` [ethidium bromide], the “effect on relative viscosity of CT-DNA” value in assay [6] is on record as “increases the dynamic viscosity”.

Turning to `CNC(C)C1CCC(N)C(OC2C(N)CC(N)C(OC3OCC(C)(O)C(NC)C3O)C2O)O1` (stereo not shown) [gentamicin, reference compound], the MIC in assay [1] was over 10.5 µM; in assay [2], 5.24 µM (≈ 2.5 µg/mL); in assay [3], 2.62 µM (≈ 1.25 µg/mL); in assay [4], 10.5 µM (≈ 5 µg/mL); in assay [5] it was 10.5 µM (≈ 5 µg/mL).

In general, IC50 refers to the point on the concentration scale where inhibition reaches its midpoint. For `COc1cccc2c1C(=O)c1c(O)c3c(c(O)c1C2=O)C[C@@](O)(C(=O)CO)C[C@@H]3O[C@H]1C[C@H](N)[C@H](O)[C@H](C)O1` [Doxorubicin, reference compound], the IC50 was found to be 158 ± 4 nM in assay [7] and 128 ± 0.9 nM in assay [8].

Source of the values: paper PMC12648656, “Palladium(II) Complexes with Noncovalent Interactions with DNA: Solution Speciation Controlled by Solvent Identity, pH, and Concentration” (Inorganic Chemistry, 2025).
